Results taken from the NIST ThermoML archive (doi:10.1016/j.tca.2012.11.008).
Numbers after ± are expanded uncertainties.

Experiment: mn = molality of the nth substance listed, in mol/kg
Details: 101 kPa, Liquid; for speed of sound: Sing-around technique in a fixed-path interferometer; for mass density: Vibrating tube method

O [water] + NC(CO)(CO)CO.O=C(c1ccccc1)c1ccc2n1CCC2C(=O)O
Details | speed of sound [m/s]
313.15 K, m2 = 0 | 1529.1 ± 1.3

NC(CO)(CO)CO.O=C(c1ccccc1)c1ccc2n1CCC2C(=O)O (stereo unspecified) [ketorolac tromethamine] + O
Details | mass density, 293.15 K [kg/m3] | mass density, 298.15 K [kg/m3] | mass density, 303.15 K [kg/m3] | mass density, 308.15 K [kg/m3] | mass density, 313.15 K [kg/m3] | speed of sound, 293.15 K [m/s] | speed of sound, 298.15 K [m/s] | speed of sound, 303.15 K [m/s] | speed of sound, 308.15 K [m/s] | speed of sound, 313.15 K [m/s]
m1 = 0.01 | 999.38 ± 0.22 | 998.2 ± 0.22 | 996.79 ± 0.22 | 995.17 ± 0.21 | 993.34 ± 0.21 | 1485.6 ± 1.3 | 1499.7 ± 1.3 | 1512 ± 1.3 | 1522.5 ± 1.3 | 1531.5 ± 1.3
m1 = 0.02 | 1000.35 ± 0.21 | 999.17 ± 0.21 | 997.75 ± 0.2 | 996.11 ± 0.2 | 994.28 ± 0.2 | 1486.8 ± 1.3 | 1500.7 ± 1.3 | 1512.9 ± 1.3 | 1523.3 ± 1.3 | 1532.2 ± 1.2
m1 = 0.03 | 1001.41 ± 0.23 | 1000.21 ± 0.21 | 998.78 ± 0.21 | 997.13 ± 0.21 | 995.29 ± 0.2 | 1488.7 ± 1.3 | 1502.5 ± 1.3 | 1514.6 ± 1.3 | 1524.9 ± 1.3 | 1533.7 ± 1.3
m1 = 0.04 | 1002.57 ± 0.19 | 1001.23 ± 0.19 | 999.83 ± 0.19 | 998.13 ± 0.19 | 996.22 ± 0.19 | 1491 ± 1.3 | 1504.7 ± 1.3 | 1516.7 ± 1.3 | 1527 ± 1.3 | 1535.7 ± 1.3
m1 = 0.05 | 1003.3 ± 0.21 | 1002.07 ± 0.22 | 1000.62 ± 0.22 | 998.96 ± 0.22 | 997.1 ± 0.21 | 1492.1 ± 1.3 | 1505.7 ± 1.3 | 1517.6 ± 1.3 | 1527.7 ± 1.3 | 1536.3 ± 1.3
m1 = 0.075 | 1006.13 ± 0.22 | 1004.88 ± 0.22 | 1003.4 ± 0.22 | 1001.71 ± 0.22 | 999.82 ± 0.21 | 1497.4 ± 1.3 | 1510.7 ± 1.3 | 1522.3 ± 1.3 | 1532.2 ± 1.3 | 1540.5 ± 1.3
m1 = 0.1 | 1008.75 ± 0.22 | 1007.46 ± 0.21 | 1005.95 ± 0.21 | 1004.24 ± 0.21 | 1002.31 ± 0.2 | 1501.5 ± 1.3 | 1514.5 ± 1.3 | 1525.8 ± 1.3 | 1535.5 ± 1.3 | 1543.6 ± 1.3
m1 = 0.125 | 1011.43 ± 0.22 | 1010.1 ± 0.21 | 1008.54 ± 0.21 | 1006.74 ± 0.21 | 1004.79 ± 0.21 | 1506 ± 1.3 | 1518.8 ± 1.3 | 1530 ± 1.3 | 1539.4 ± 1.3 | 1547.3 ± 1.3
m1 = 0.15 | 1014.02 ± 0.21 | 1012.67 ± 0.21 | 1011.11 ± 0.21 | 1009.34 ± 0.21 | 1007.39 ± 0.21 | 1509.9 ± 1.3 | 1522.5 ± 1.3 | 1533.4 ± 1.3 | 1542.7 ± 1.3 | 1550.4 ± 1.3
m1 = 0.175 | 1016.56 ± 0.21 | 1015.19 ± 0.21 | 1013.63 ± 0.21 | 1011.84 ± 0.21 | 1009.86 ± 0.2 | 1514.6 ± 1.3 | 1527.1 ± 1.3 | 1538 ± 1.3 | 1547.2 ± 1.3 | 1554.6 ± 1.3
m1 = 0.2 | 1019.22 ± 0.22 | 1017.8 ± 0.22 | 1016.15 ± 0.22 | 1014.32 ± 0.22 | 1012.32 ± 0.21 | 1518.9 ± 1.3 | 1531.4 ± 1.3 | 1542.3 ± 1.3 | 1550.8 ± 1.3 | 1558.1 ± 1.3
m1 = 0.25 | 1024.63 ± 0.22 | 1023.16 ± 0.22 | 1021.49 ± 0.22 | 1019.63 ± 0.22 | 1017.59 ± 0.22 | 1525.6 ± 1.3 | 1537.4 ± 1.3 | 1547.6 ± 1.3 | 1556 ± 1.3 | 1563 ± 1.3
